ChEMBL document CHEMBL1135050, “Design and synthesis of 4,5-disubstituted-thiophene-2-amidines as potent urokinase inhibitors” (Bioorg Med Chem Lett, 2002)
Values after ≈ are worked out from the molar mass of the structure shown.

Test system: not listed separately
Experiment: Compound was evaluated for its solubility in water
Assay type: ADME

solubility [µM] | Structure (SMILES)
9000 (≈ 2690 µg/mL) | Cc1sc(C(=N)N)cc1-c1nc(-c2ccccc2)cs1
300 (≈ 99.4 µg/mL) | CSc1sc(C(=N)N)cc1-c1nc(-c2ccccc2)cs1
2700 (≈ 846 µg/mL) | CCc1sc(C(=N)N)cc1-c1nc(-c2ccccc2)cs1

Target: Urokinase-type plasminogen activator (Homo sapiens, UniProt P00749)
Experiment: Inhibition of Human kidney cell urokinase
Assay type: cell-based

Ki [nM] | Structure (SMILES)
531 | COc1sc(C(=N)N)cc1-c1nc(-c2ccccc2)cs1
138 | CCc1sc(C(=N)N)cc1-c1nc(-c2ccccc2)cs1

Second part, the compound before the results:

Structure (SMILES) | Ki [nM]
COc1ccc(-c2csc(-c3cc(C(=N)N)sc3SC)n2)cc1OC | 58
CSc1sc(C(=N)N)cc1-c1nc(-c2ccc(Cl)cc2)cs1 | 102
CS(=O)(=O)c1sc(C(=N)N)cc1-c1nc(-c2ccc(Cl)cc2)cs1 | 2500
N=C(N)c1cc(-c2nc(-c3ccc(Cl)cc3)cs2)c(SCc2ccccc2)s1 | 2500
